Measured values as given in patent US20050074451A1, “Methods and compositions for treating rheumatoid arthritis” (Elan Pharmaceuticals, Inc., priority 2003, published 2005).

How the values were obtained:
[1] = test system: Lewis rats with adjuvant induced arthritis; assay: Adjuvant-induced arthritis (AIA) in Lewis rats: paw swelling, erythema, clinical and histological scores; format: in vivo, rat
[2] = test system: rat ClA model; assay: Rat ClA model, paw swelling and erythema, disease severity; format: in vivo; conditions: antibody 3 mg/kg i.v., compounds 30, 10, 3 mg/kg b.i.d.
Description: Anti alpha-4 antibodies, and the compounds of Formulae W and Y were tested in the rat ClA model according to the methods shown in Table 14 below.
(§1) The results in FIG. 6 show the results for compounds. There were 8 rats per group in the efficacy study. Paw swelling and erythema were measured daily and the tarsal paws collected for histological analysis at the end of the study. Plasma which was heparinized was collected at 12 hours (i.e., the trough level) and at 4 horus after the last dose for compound measurement (FIG. 6).

[3] = rat, in vivo, 3 mg/kg
[4] = Blood levels of compound in murine ClA model; format: in vivo; conditions: male, DBA/1 LacJ, mouse, whole blood, 100 mg/kg b.i.d., 16 hours after dosing
Description: The effect of the compound of Formula P was evaluated in a therapeutica ClA model.
(§2) 100 DBA/1 LacJ male mice, ages 6-8 weeks were obtained from Jackson Laboratories. The mice were immunized at Day 0 as follows: 100 μg bovine type II collagen (Chondrex) in Complete Freund's adjuvant (CFA, Sigma) were injected into the mice. At Day 21, another 100 μg bovine type II collagen (Chondrex) in Incomplete Freund's Adjuvant (IFA, Sigma) was injected into the mice. Treatment with the compound began when the animals had the disease (i.e., 100% therapeutic).

[5] = Blood/plasma levels of compound in rat ClA model (relative to receptor saturation); format: in vivo; conditions: at 12 hours, all concentrations tested
Description: as §1

[6] = test system: DBA/1 LacJ mice with collagen-induced arthritis; assay: Murine collagen-induced arthritis (ClA) model, clinical scores; format: in vivo, mouse; conditions: therapeutic ClA model, 100 mg/kg b.i.d. (Table 12)
Description: A murine collagen-induced arthritis (ClA) model was used to examine the pharmacological effect of anti-alpha4-integrin antibodies prophylactically, semi-therapeutically and therapeutically. Dosing of the antibody was begun on day 20 for the prophylactic animals. […] The results seen with the treatment of the ClA mice is seen in FIG. 1.
Peripheral blood leucocytes (PBLs) from mice treated with anti-alpha4, anti-α4β7 and anti-VCAM1 antibodies were collected at 4, 12 and 24 hours after antibody dosing. Cells were stained with goat anti-rat antibodies to confirm antibodies in circulation.
as §2
The mice are scored daily after the boost. […] Treatment continued for 3-weeks-of dosing. Dosing was every other day for the antibody group and control group.
DBA/1 LacJ mice, aged 8 weeks will be immunized with bovine collagen (100 μg/mice) in CFA and re-challenge on day 21 in IFA.

[7] = Plasma/blood compound levels in AIA rats (PK, relative to receptor saturation); conditions: 12 hours after dosing, all concentrations tested
[8] = target: VLA-4 (Homo sapiens, UniProt P13612); conditions: cited from earlier work
[9] = test system: human lymphocyte binding to rat brain cells; conditions: rat brain cells stimulated with tumor necrosis factor; cited from earlier work

**Q.** With `Cc1ccc(S(=O)(=O)N2CCC[C@H]2C(=O)N[C@@H](Cc2ccc(OC(=O)N3CCN(CCO)CC3)cc2)C(=O)OC(C)(C)C)cc1` as the molecule, how does the melting point read?
**A.** The melting point was 158 to 160 °C.

**Q.** With `CC(C)OC(=O)[C@H](Cc1ccc(OC(=O)N2CCN(C)CC2)cc1)NC(=O)[C@H]1N(S(=O)(=O)c2cccnc2)CSC1(C)C` [Formula N, N-[N-(3-pyridinesulfonyl)-L-3,3-dimethyl-4-thiaprolyl]-O-[I-methylpiperazin-4-ylcarbonyl]-L-tyrosine isopropyl ester] as the molecule, how does the “clinical and histological scores” value ([1]; AIA animal model, 30 mg/kg b.i.d.) read?
**A.** The value was “ameliorate clinical and histological scores”.

**Q.** What about the disease severity ([1]; AIA rats, 3 mg/kg) of the same molecule?
**A.** The disease severity was “no effect on disease severity”.

**Q.** And the disease severity [2]?
**A.** Its disease severity is “neither the compound of Formula N nor Y had any impact on disease severity”.

**Q.** What about the “compound present in the blood relative to receptor saturation” value [3] of the same molecule?
**A.** The value was “below receptor saturation”.

**Q.** For `CCN(CC)c1ncc(N(CC)S(=O)(=O)c2ccc(Cl)cc2)c(NC(Cc2ccc(OC(=O)N3CCCC3)cc2)C(=O)O)n1` (stereo not drawn) [Formula P], which concentration at 16 h [4] is on record?
**A.** Its concentration at 16 h is 1000 ng/mL.

**Q.** What about the “blood levels of the compound relative to receptor saturation” value [5] of the same molecule?
**A.** The value was “above receptor saturation”.

**Q.** And the disease ([1]; AIA rats, all concentrations tested (30, 10, 3 mg/kg b.i.d. p.o.))?
**A.** The disease was “ameliorate disease at all concentrations tested”.

**Q.** What about the disease progression [6] of the same molecule?
**A.** The disease progression was “no effect on disease progression”.

**Q.** And the “levels of the compound relative to receptor saturation” value [7]?
**A.** The value was “above receptor saturation”.

B1: mu MAb 21.6: mouse monoclonal antibody specific for the α4 subunit of VLA-4; donor immunoglobulin of the humanized antibodies (antibody, V domains shown)
VH: EVQLQQSGAELVKPGASVKLSCTASGFNIKDTYIHCVKQRPEQGLEWIGRIDPANGYTKYDPKFQGKATITADTSSNTAYLQLSSLTSEDTAVYFCAREGYYGNYGVYAMDYWGQGTSVTVSSAK
VL: DIQMTQSPSSLSASLGGKVTITCKTSQDINKYMAWYQHKPGKRPRLLIHYTSALQPGIPSRFSGSGSGRDYSFNISNLEPEDIATYYCLQYDNLWTFGGGTKLEIK
**Q.** Which results are given for B1?
**A.** binding affinity for VLA-4 [8]: about 10^9 M^−1; human lymphocyte binding to tissue cultures of rat brain cells [9]: inhibit
